# Results from patent US20130310611A1, “PROCESS FOR PRODUCTION OF PHENOLIC POLYMERIZABLE COMPOUND HAVING PHYSIOLOGICAL ACTIVITY” (UHA MIKAKUTO CO., LTD., priority 2010, published 2013).
# Like-named read-outs stand apart in the source and are kept apart here.
# Legend:
# [1] = biological target: rat intestine derived lipase; test: Lipase inhibitory action test (Lipase kit S); format: biochemical; conditions: 30° C., 10 minutes reaction
# Description: In order to see the inhibitory action to lipase of the phenolic polymerizable compound, an inhibitory action test using rat intestine derived lipase was performed.
# As lipase, one obtained by suspending 100 mg of rat derived intestine acetone powder (manufactured by Sigma-Aldrich Japan) in 1 ml of 100 mM citric acid buffer (pH 6.0), stirred at 4° C. for 1 hour, centrifuging the same (at 15000 rpm for 45 minutes at 4° C.), and then diluting the supernatant by 1500 times was used as a lipase solution.
# As samples, p-coumaric acid, ferulic acid, and coffeic acid and the UHA6005, the UHA6006, the UHA7009, the UHA7010, the UHA7011, the UHA8015, and the UHA9020 which were already purified were used. With respect to the preparation of the samples, each compound was dissolved in DMSO, and then prepared in such a manner as to achieve 0.1 mM, 0.5 mM, 1 mM, 2 mM, and 4 mM.
# For measuring the activity, a “Lipase kit S” (Trade name, manufactured by Dainippon Pharmaceutical Co., Ltd.) was used. First, in accordance with a preparation method described in the catalog of the Lipase kit S, a color developing liquid was prepared. Reaction liquids in which 70 μl of the color developing liquid, 2 μl of an esterase inhibitor, 10 μl of the lipase solution, and 10 μl of the samples (Final concentration: 10 μM, 50 μM, 100 μM, 200 μM, 400 μM, and 1000 μM) were mixed were prepared, preincubated at 30° C. for 5 minutes, and then 8 μl of a substrate solution described in the catalog was added. Then, a reaction was started. After reacting for 10 minutes, 150 μl of a reaction stop liquid prepared in accordance with the preparation method described in the catalog of the Lipase kit S was added to stop the reaction. The resultant substance was subjected to a measurement of absorbancy at a wavelength of 415 nm. A reaction liquid to which only DMSO as the solvent of the sample was added was used as a positive control and one to which 10 μl of 100 mM citric acid buffer (pH 6.0) was added instead of the lipase solution was used as a negative control. From the relationship between the lipase inhibition rate calculated based on the data obtained therefrom and the concentration of each compound, the concentration IC50 at which the lipase activity is inhibited by 50% was calculated.
# [2] = tested on: SCC-4 cells (human oral cancer cells, ATCC); test: Cancer cell growth suppressing action using SCC-4 cells (MTT method, Cell counting kit-8); format: cell-based; conditions: 6.3-100 μM, read-out: Cell growth suppressing ability (IC50)
# Description: Next, in order to see the effect of the phenolic polymerizable compound to oral cancer cells, cancer cell growth suppressing action using SCC-4 cells (human oral cancer cells, ATCC) was tested.
# For culturing the SCC-4 cells, a DMEM/F-12 (1:1) culture medium (manufactured by GIBCO) containing 400 ng/mL hydrocortisone (manufactured by Sigma-Aldrich Japan), 1% antibiotic-antimycotic (manufactured by GIBCO), and 10% FBS (Foetal Bovine Serum, manufactured by ATCC) was used. For the test, a collagen I coat 96 well plate for cell culture (manufactured by Japan BD) was used, and SCC-4 cells whose number of cells was adjusted to be 5×10^5 cells/mL were seeded at 100 μL per well. The cells were cultured under the conditions of 37° C. and 5% CO2 for 24 hours, and were used for the test in a confluent state of 80% or higher.
# As samples, p-coumaric acid and coffeic acid and the UHA6005, the UHA7009, the UHA7010, and the UHA7011 which were already purified were used. With respect to the preparation of the samples, each compound was dissolved in DMSO, and then prepared in such a manner as to achieve 0.63 mM, 1.25 mM, 2.5 mM, 5 mM, and 10 mM. The samples were added in such a manner that the final concentration in the SCC-4 cell culture solution was 6.3 μM, 12.5 μM, 25 μM, 50 μM, and 100 μM. Then, the test was started. A sample to which an equivalent amount of only DMSO as the solvent was added was used as a negative control.
# The number of viable cells was quantified by an MTT method using a “Cell counting kit-8” in the same manner as in Example 18, and the concentration IC50 at which the cell growth is suppressed by 50% was calculated.
# [3] = Solubility (physicochemical properties); conditions: for Solubility: DMSO: solvent DMSO; for Solubility: Chloroform: solvent chloroform; for Solubility: Ethanol: solvent ethanol; for Solubility: Ethyl acetate: solvent ethyl acetate; for Solubility: Methanol: solvent methanol; for Solubility: Water: solvent water
# [4] = tested on: HL-60 cells (human promyelocytic leukemia cells); test: Cancer cell growth suppressing action using HL-60 cells (MTT method, Cell counting kit-8); format: cell-based; conditions: 24 hours, 6.3-100 μM, read-out: Cell growth suppressing ability to HL-60 (IC50)
# Description: Next, in order to see the effect of the phenolic polymerizable compound to cancer cells, cancer cell growth suppressing action using HL-60 cells (human promyelocytic leukemia cells) was tested.
# For culturing the HL-60 cells, an enriched culture medium “RPMI-1640” (manufactured by Sigma-Aldrich Japan) containing 4 mM glutamine (L-Glutamine, manufactured by Sigma-Aldrich Japan) and 10% FBS (Foetal Bovine Serum, manufactured by Biological Industries) was used. For the test, a 96-well plate for cell culture (manufactured by Corning Japan) was used, and the HL-60 cells whose number of cells was adjusted to be 5×10^5 cells/mL were seeded at 100 μL per well.
# As samples, p-coumaric acid, ferulic acid, coffeic acid, and sinapic acid, and the UHA6005, the UHA6006, the UHA7004, the UHA7009, the UHA7010, the UHA7011, the UHA8015, the UHA9019, and the UHA9020 which were already purified were used. With respect to the preparation of the samples, each compound was dissolved in DMSO (Wako Pure Chemical Industries, Ltd.), and then adjusted in such a manner that the final concentration in the HL-60 cell culture solutions was 6.3 μM, 12.5 μM, 25 μM, 50 μM, and 100 μM. Then, the test was started.
# The number of viable cells was quantified by an MTT method using a “Cell counting kit-8” (manufactured by DOJINDO LABORATORIES). 24 hours after starting the test, 10 μl of a Cell counting kit-8 solution was added to each well, and then sufficiently stirred. After a shading reaction for 1 hour, the absorbancy was measured at a measurement wavelength of 450 nm using a plate leader (Biorad Laboratories, Inc., “BIO-RAD Model 680”). Then, the cell viability was calculated based on the obtained data. The cell viability is a value obtained by setting the number of viable cells of the culture liquid to which only DMSO as a solvent was added to 100%, and then calculating the number of viable cells under the concentration of each compound as a relative value. From the relationship between the concentration of each compound and the cell viability, the concentration IC50 (50% inhibition concentration) at which the cell growth is suppressed by 50% was calculated.
Structure (SMILES),IC50 [1],IC50 ([2]; Homo sapiens),Solubility: DMSO [3],Solubility: Chloroform [3],Solubility: Ethanol [3],Solubility: Ethyl acetate [3],Solubility: Methanol [3],Solubility: Water [3],IC50 ([4]; Homo sapiens),IC50 [2],IC50 [4]
CC(/C=C/c1ccc(O)c(O)c1)c1ccc(O)c(O)c1 (centres unmarked) [UHA6005],253 µM,69.7 µM,Soluble,Soluble,Soluble,Soluble,Soluble,Poorly soluble,43.7 µM,–,–
CC(/C=C/c1ccc(O)c(C(C)c2ccc(O)cc2)c1)c1ccc(O)cc1 (centres unmarked) [UHA7011],197 µM,40.8 µM,Soluble,Soluble,Soluble,Soluble,Soluble,Poorly soluble,35.4 µM,–,–
"COc1cc(/C=C/C(=O)O)ccc1O [Ferulic acid, reference compound]",> 1000 µM,–,–,–,–,–,–,–,> 100 µM,–,–
"COc1cc(/C=C/C(=O)O)cc(OC)c1O [Sinapic acid, reference compound]",–,–,–,–,–,–,–,–,> 100 µM,–,–
CC(/C=C/c1ccc(O)cc1)c1ccc(O)cc1 (centres unmarked) [UHA7009],438 µM,72.9 µM,Soluble,Soluble,Soluble,Soluble,Soluble,Poorly soluble,49.3 µM,–,–
"O=C(O)/C=C/c1ccc(O)cc1 [p-coumaric acid, reference compound]",> 1000 µM,> 100 µM,–,–,–,–,–,–,> 100 µM,–,–
CC(CC(/C=C/c1ccc(O)cc1)c1ccc(O)cc1)c1ccc(O)cc1 (centres unmarked) [UHA7010],60.4 µM,61.1 µM,Soluble,Soluble,Soluble,Soluble,Soluble,Poorly soluble,35.3 µM,–,–
COc1cc(/C=C/C(C)c2ccc(O)c(OC)c2)ccc1O (centres unmarked) [UHA7004],–,–,Soluble,Soluble,Soluble,Soluble,Soluble,Poorly soluble,17.6 µM,–,–
COc1cc(/C=C/C(C)c2cc(OC)c(O)c(OC)c2)cc(OC)c1O (centres unmarked) [UHA9019],–,–,Soluble,Soluble,Soluble,Soluble,Soluble,Poor soluble,66.2 µM,–,–
CC(/C=C/c1cc(O)c(O)cc1C(C)c1ccc(O)c(O)c1)c1ccc(O)c(O)c1 (centres unmarked) [UHA6006],188 µM,–,Soluble,Soluble,Soluble,Soluble,Soluble,Poorly soluble,42.4 µM,–,–
"O=C(O)/C=C/c1ccc(O)c(O)c1 [Coffeic acid, reference compound]",> 1000 µM,–,–,–,–,–,–,–,–,> 100 µM,> 100 µM
"COc1cc(C(C)/C=C/c2ccc(O)cc2)ccc1O (single isomer, unassigned) [UHA8015]",350 µM,–,Soluble,Soluble,Soluble,Soluble,Soluble,Non-soluble,74.3 µM,–,–
COc1cc(/C=C/C(C)c2ccc(O)c(O)c2)ccc1O (centres unmarked) [UHA9020],118 µM,–,Soluble,Soluble,Soluble,Soluble,Soluble,Non-soluble,38.5 µM,–,–
